The text below walks through data of US20170129903A1, “COMPOUNDS COMPRISING 1,1a,2,5a-TETRAHYDROSPIRO[INDOLE-3,2a-PYRROLE]-2,5a-DIONE SYSTEM AS INHIBITORS P53-MDM2 PROTEIN-PROTEIN INTERACTION” (ADAMED SP. Z O.O., priority 2014, published 2017).

Assay [1] has as its target T1, p53-Mdm2 interaction (N-terminal domain of Mdm2 protein, amino acids 1-111) (Homo sapiens, UniProt Q00987).
T1 construct: N-terminal domain of Mdm2 protein (amino acids 1-111)
In words: Fluorescence polarization (FP) binding assay of p53-Mdm2 interaction. The following applies: FP assay, 130 nM Mdm2, FAM-labelled p53 peptide; Ki transformed from IC50 using Kenakin equation. As for the experimental part: The inhibition of p53-Mdm2 interaction was measured using a fluorescence polarization (FP) binding assay. FP measures the rotational movement of molecules in a homogenous suspension. For this assay, N-terminal domain of Mdm2 protein (amino acids 1-111) is combined with a fluorescein-labelled (FAM) peptide derived from p53 trans-activation domain. Upon excitation of the fluorescent ligand with linearly polarized light, […]. If the peptide is bound by Mdm2, rotation will slow down and the perpendicular component will decrease. Disruption of the formation of the peptide-Mdm2 complex due to an inhibitor molecule binding to the p53 binding site of Mdm2 results in faster rotation of the peptide.
Fluorescence polarization experiments were read on Tecan Infinite M1000 reader with the 470 nm excitation and 520 nm emission filters for fluorescein. The fluorescence polarization was measured in black 96-well plates (Corning, CLS3991) in room temperature. Purity of Mdm2 was controlled at >95%. Reaction buffer was optimized by adding 5 mM DTT and 0.1% zwitterionic detergent CHAPS to reduce effect of nonspecific interactions.
The test was performed by combining successive dilution of compounds diluted in dimethyl sulfoxide (DMSO, 5% final concentration) with 130 nM Mdm2 in reaction buffer (PBS, 0.1% CHAPS, 5 mM DTT (dithiothreitol)). After 15 minutes of incubation in room temperature […] FAM-labelled peptide was added. Final reading was performed after 90 minutes of incubation. Dose-dependent binding curves and IC50 values were calculated using GraphPad Prism5 and next transformed to Ki values using Kenakin equation.

Assay [2] relates to SJSA-1 osteosarcoma cell line. Put plainly: MTT cell viability assay. The assay is classed as cell-based. The following applies: 72 h incubation, average of 2-5 experiments. The procedure: The effect of the invented p53-Mdm2 inhibitors on cell viability has been assessed using MTT assay. It is a colorimetric assay that measures conversion of tetrazolium ring of the soluble yellow dye (MTT) into insoluble purple formazan. This process is catalysed solely in mitochondrial dehydrogenases of living cells.
Cells were seeded on 96-well plates and then treated with successive dilutions of tested compounds. After 72 h incubation, MTT was added to the final concentration 0.5 mg/ml. The cells were further incubated for the next 4 h. Then the solution was drained and the remaining formazan crystals were dissolved in 100 μl DMSO. […] All the MTT experiments were independently repeated 2-5 times. Dose-dependent binding curves and IC50 values were calculated using GraphPad Prism 5.

T1 sequence (Q00987 1-111): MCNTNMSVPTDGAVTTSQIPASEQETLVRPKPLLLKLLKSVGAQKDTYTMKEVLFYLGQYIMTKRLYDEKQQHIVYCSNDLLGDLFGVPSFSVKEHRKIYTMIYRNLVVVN

Regarding `COc1ccc(Cl)cc1N1C(=O)c2n[nH]c(C(C)(C)C)c2C12C(=O)Nc1cc(Cl)ccc12` (stereo not shown) [Compound 21, 3′-tert-butyl-6-chloro-5′-(5-chloro-2-methoxyphenyl)-1,2,5′,6′-tetrahydro-2′H-spiro[indole-3,4′-pyrrolo[3,4-c]pyrazole]-2,6′-dione], the Ki in assay [1] is 70 nM. For the same compound, the IC50 in assay [2] (Homo sapiens, SJSA-1, 72 h) turned out to be 15.1 µM.
On to `Cc1ccc(Cl)cc1N1C(=O)C(O)=C(c2ccccc2)C12C(=O)Nc1cc(Cl)ccc12` (stereo not shown) [Compound 47, 6-chloro-1′-(5-chloro-2-methylphenyl)-4′-hydroxy-3′-phenyl-1,1′,2,5′-tetrahydrospiro[indole-3,2′-pyrrole]-2,5′-dione], for which, in assay [1], the Ki stood at 29 nM. Besides, in assay [2] (Homo sapiens, SJSA-1, 72 h), the concentration for half-maximal inhibition (IC50) was determined as 44.5 µM.
With `CC(C)(C)c1[nH]nc2c1C1(C(=O)Nc3cc(Cl)ccc31)N(c1cccc(Cl)c1)C2=O` (stereo not shown) [Compound 20, 3′-tert-butyl-6-chloro-5′-(3-chlorophenyl)-1,2,5′,6′-tetrahydro-2′H-spiro[indole-3,4′-pyrrolo[3,4-c]pyrazole]-2,6′-dione], the Ki in assay [1] came to 24 nM. The compound also returned an IC50 in assay [2] (Homo sapiens, SJSA-1, 72 h) of 21.2 µM.
For the compound `COc1ccc(Cl)cc1N1C(=O)c2n[nH]c(C(C)C)c2C12C(=O)Nc1cc(Cl)ccc12` (stereo not shown) [Compound 25, 6-chloro-5′-(5-chloro-2-methoxyphenyl)-3′-(propan-2-yl)-1,2,5′,6′-tetrahydro-2′H-spiro[indole-3,4′-pyrrolo[3,4-c]pyrazole]-2,6′-dione], the affinity in assay [1], expressed as Ki, was 94 nM. For the same compound, inhibition in assay [2] (Homo sapiens, SJSA-1, 72 h) was half-maximal at 10.2 µM (IC50).
In assay [1], `COc1ccccc1-n1cc2c(c1C(C)C)[C@@]1(C(=O)Nc3cc(Cl)ccc31)N(c1cc(Cl)ccc1NS(C)(=O)=O)C2=O` [Compound 102, N-{4-chloro-2-[(3S)-6-chloro-5′-(2-methoxy-phenyl)-2,3′-dioxo-6′-(propan-2-yl)-1,2,3′,5′-tetrahydro-2′H-spiro[indole-3,1′-pyrrolo[3,4-c]pyrrole]-2′-yl]phenyl} methanesulfonamide] returned an inhibition constant (Ki) of 2.9 nM. For the same compound, in assay [2] (Homo sapiens, SJSA-1, 72 h), the IC50 amounted to 0.66 µM.
Take `Cc1ncc(Cl)cc1N1C(=O)c2n[nH]c(C(C)C)c2C12C(=O)Nc1cc(Cl)ccc12` (stereo not shown) [Compound 84, 6-chloro-5′-(5-chloro-2-methylpyridin-3-yl)-3′-(propan-2-yl)-1,2,5′,6′-tetrahydro-2′H-spiro[indole-3,4′-pyrrolo[3,4-c]pyrazole]-2,6′-dione]: the Ki in assay [1] was found to be 152 nM. In assay [2] (Homo sapiens, SJSA-1, 72 h), this compound gave an IC50 of 46.1 µM.
`COc1ccccc1-n1cc2c(c1C(C)C)C1(C(=O)Nc3cc(Cl)ccc31)N(c1cc(Cl)ccc1[N+](=O)[O-])C2=O` (stereo not shown) [Compound 90, 6-chloro-2′-(5-chloro-2-nitrophenyl)-5′-(2-methoxyphenyl)-6′-(propan-2-yl)-1,2,3′,5′-tetrahydro-2′H-spiro[indole-3,1′-pyrrolo [3,4-c]pyrrole]-2,3′-dione] came in with an inhibition constant Ki in assay [1] of 33 nM. Also, in assay [2] (Homo sapiens, SJSA-1, 72 h), 6.19 µM corresponded to half-maximal inhibition (IC50).
`CN(C)C(=O)C1CCCC1Cn1nc2c(c1C1(C)CC1)C1(C(=O)Nc3cc(Cl)ccc31)N(c1cccc(Cl)c1)C2=O` (stereo not shown) [Compound 29, 2-[6-chloro-5′-(3-chlorophenyl)-3′-(1-methylcyclopropyl)-2,6′-dioxo-1,2,5′,6′-tetrahydro-2′H-spiro[indole-3,4′-pyrrolo [3,4-c]pyrazole]-2′-ylmethyl]-N,N-dimethylcyclopentane-1-carboxamide]: in assay [1], the affinity, expressed as Ki, was 358 nM. In assay [2] (Homo sapiens, SJSA-1, 72 h), this compound yielded an IC50 of 48.8 µM.
The like results for `Cc1ccc(Cl)cc1N1C(=O)c2n[nH]c(C(C)C)c2C12C(=O)Nc1cc(Cl)ccc12` (stereo not shown) [Compound 23, 6-chloro-5′-(5-chloro-2-methylphenyl)-3′-(propan-2-yl)-1,2,5′,6′-tetrahydro-2′H-spiro[indole-3,4′-pyrrolo[3,4-c]pyrazole]-2,6′-dione] were, in that order, 20 nM and 10.2 µM.
The like results for `COc1ccccc1-n1cc2c(c1C(C)C)C1(C(=O)Nc3cc(Cl)ccc31)N(c1cc(Cl)ccc1NS(C)(=O)=O)C2=O` (stereo not shown) [Compound 92, N-{4-chloro-2-[6-chloro-5′-(2-methoxy-phenyl)-2,3′-dioxo-6′-(propan-2-yl)-1,2,3′,5′-tetrahydro-2′H-spiro[indole-3,1′-pyrrolo[3,4-c]pyrrole]-2′-yl]phenyl} methanesulfonamide] were, in that order, 6.6 nM and 1.07 µM.
For `COc1ccc(Cl)cc1N1C(=O)C(O)=C(c2ccccc2)C12C(=O)Nc1cc(Cl)ccc12` (stereo not shown) [Compound 46, 6-chloro-1′-(5-chloro-2-methoxyphenyl)-4′-hydroxy-3′-phenyl-1,1′,2,5′-tetrahydrospiro[indole-3,2′-pyrrole]-2,5′-dione] the same measures were 96 nM and 32.3 µM.
Take `Cc1cccc(-n2nc3c(c2C(C)C)C2(C(=O)Nc4cc(Cl)ccc42)N(c2cc(Cl)ccc2C)C3=O)c1` (stereo not shown) [Compound 69, 6-chloro-5′-(5-chloro-2-methylphenyl)-2′-(3-methylphenyl)-3′-(propan-2-yl)-1,2,5′,6′-tetrahydro-2′H-spiro[indole-3,4′-pyrrolo[3,4-c]pyrazole]-2,6′-dione]: the inhibition constant Ki in assay [1] was found to be 67 nM. Moreover, in assay [2] (Homo sapiens, SJSA-1, 72 h), the IC50 is 4.04 µM.
The compound `COc1ccccc1-n1nc2c(c1C(C)C)[C@@]1(C(=O)Nc3cc(Cl)ccc31)N(c1cncc(Cl)c1)C2=O` [Compound 88, (3S)-6-chloro-5′-(5-chloropyridin-3-yl)-2′-(2-methoxyphenyl)-3′-(propan-2-yl)-1,2,5′,6′-tetrahydro-2′H-spiro[indole-3,4′-pyrrolo[3,4-c]pyrazole]-2,6′-dione] returned an inhibition constant Ki in assay [1] of 1.9 nM. Also, the midpoint of inhibition in assay [2], the IC50, lay at 0.34 µM.
Take `COc1ccccc1-n1cc2c(c1C(C)C)C1(C(=O)Nc3cc(Cl)ccc31)N(c1cccc(Cl)c1)C2=O` (stereo not shown) [Compound 89, 6-chloro-2′-(3-chlorophenyl)-5′-(2-methoxyphenyl)-6′-(propan-2-yl)-1,2,3′,5′-tetrahydro-2′H-spiro[indole-3,1′-pyrrolo [3,4-c]pyrrole]-2,3′-dione]: the affinity in assay [1], expressed as Ki, was 5.3 nM.
Compound `CCOC(=O)CNC1=C(C(=O)C2(C)CC2)C2(C(=O)Nc3cc(Cl)ccc32)N(c2cccc(Cl)c2)C1=O` (stereo not shown) [Compound 15, ethyl 2-{[6-chloro-1′-(3-chlorophenyl)-3′-(1-methylcyclopropanecarbonyl)-2,5′-dioxo-1,1′,2,5′-tetrahydrospiro[indole-3,2′-pyrrole]-4′-yl]amino}acetate] gave a Ki in assay [1] of 349 nM.
Same read-out and setting: the same measure for `CC(C)(C)C(=O)C1=C(O)C(=O)N(c2cccc(Cl)c2)C12C(=O)Nc1cc(Cl)ccc12` (stereo not shown) [Compound 6, 6-chloro-1′-(3-chlorophenyl)-3′-(2,2-tert-butanoyl)-4′-hydroxy-1,1′,2,5′-tetrahydrospiro[indole-3,2′-pyrrole]-2,5′-dione]: 102 nM.
For the compound `Cc1ccc(Cl)cc1N1C(=O)C(O)=C(C(=O)C(C)C)C12C(=O)Nc1cc(Cl)ccc12` (stereo not shown) [Compound 8, 6-chloro-1′-(5-chloro-2-methylphenyl)-4′-hydroxy-3′-(iso-propanoyl)-1,1′,2,5′-tetrahydrospiro[indole-3,2′-pyrrole]-2,5′-dione], in assay [1], the affinity, expressed as Ki, was 120 nM.
`COc1cccc(OC)c1-n1nc2c(c1C(C)C)C1(C(=O)Nc3cc(Cl)ccc31)N(c1cc(Cl)ccc1C)C2=O` (stereo not shown) [Compound 70, 6-chloro-5′-(5-chloro-2-methylphenyl)-2′-(2,6-dimethoxyphenyl)-3′-(propan-2-yl)-1,2,5′,6′-tetrahydro-2′H-spiro[indole-3,4′-pyrrolo[3,4-c]pyrazole]-2,6′-dione] had a Ki in assay [1] of 120 nM.
Regarding `COc1ccccc1-n1cc2c(c1C(C)C)C1(C(=O)Nc3cc(Cl)ccc31)N(c1cc(Cl)ccc1N)C2=O` (stereo not shown) [Compound 91, 2′-(2-amino-5-chlorophenyl)-6-chloro-5′-(2-methoxyphenyl)-6′-(propan-2-yl)-1,2,3′,5′-tetrahydro-2′H-spiro[indole-3,1′-pyrrolo[3,4-c]pyrrole]-2,3′-dione], the inhibitory constant (Ki) in assay [1] was determined as 4.5 nM.
With `O=C(O)CNC1=C(c2ccccc2)C2(C(=O)Nc3cc(Cl)ccc32)N(c2cccc(Cl)c2)C1=O` (stereo not shown) [Compound 49, 2-{[6-chloro-1′-(3-chlorophenyl)-2,5′-dioxo-3′-phenyl-1,1′,2,5′-tetrahydrospiro [indole-3,2′-pyrrole]-4′-yl]amino}acetic acid], the Ki in assay [1] was found to be 38 nM. This Ki is about 8.4-fold higher than that of the compound before.
On to `O=C1C(O)=C(Sc2ccc(Cl)cc2)C2(C(=O)Nc3cc(Cl)ccc32)N1c1cccc(Cl)c1` (stereo not shown) [Compound 54, 6-chloro-1′-(3-chlorophenyl)-3′-[(4-chlorophenyl)sulfanyl]-4′-hydroxy-1,1′,2,5′-tetrahydrospiro[indole-3,2′-pyrrole]-2,5′-dione], for which the affinity in assay [1], expressed as Ki, was 123 nM.

The term Ki denotes a measure of affinity in units of concentration, obtained from inhibition or displacement. A lower Ki goes with a stronger hold on the target. As a reminder, the IC50 is the point on the concentration scale where inhibition reaches its midpoint.
